Source: PubChem BioAssay (NCI)
“And” between values parts separate entries of the source, which are not always exact repeats. Identical values can stand only once.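 Grown in 96-well plates, cells were treated for 48 hours with each compound at five concentrations. Insufficient inhibition: endpoint recorded as highest concentration tested. GI50: concentration for 50% inhibition of growth. TGI is the concentration that stops growth completely.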

Legend:
Assay in all cases: NCI anticancer screen, dose series, 48 h
[1] = tested on: CCRF-CEM leukemia
[2] = tested on: MDA-MB-435
[3] = tested on: ACHN renal
[4] = tested on: K-562 leukemia
[5] = tested on: OVCAR-8 ovarian
[6] = tested on: IGROV1 ovarian
[7] = tested on: NCI-H23 lung
[8] = tested on: 786-0 renal
[9] = tested on: SN12C renal
[10] = tested on: MDA-MB-231 breast

SMILES | GI50 [1] | TGI [1] [µM] | GI50 [2] [µM] | TGI [2] [µM] | GI50 [3] [µM] | TGI [3] [µM] | GI50 [4] | TGI [4] [µM] | GI50 [5] | TGI [5] [µM] | GI50 [6] | TGI [6] [µM] | GI50 [7] [µM] | TGI [7] [µM] | GI50 [8] | TGI [8] [µM] | GI50 [9] | TGI [9] [µM] | TGI [10] [µM] | GI50 [10] [µM]
COc1cc(-c2nc3sccn3c2-c2ccnc(NCCNS(=O)(=O)c3ccc(Cl)cc3)n2)ccc1F | 0.48 µM | > 100 | 3.63 | 58.1 | 2.77 | > 100 | 2.76 µM | > 100 | 2.71 µM | > 100 | 3 µM | > 100 | 3.86 | > 100 | 7.77 µM | > 100 | 4.11 µM | > 100 |  | 
N#CC(C(=O)/C(=N/NC(=O)c1ccccc1O)C(C#N)c1ccccc1)c1ccccc1 (centres undefined) |  |  |  |  |  | > 100 |  |  |  | > 100 |  | > 100 |  | > 100 |  | > 100 |  | > 100 |  | 
COC(c1cccc(C(O)(C(F)(F)F)C(F)(F)F)c1)(C(F)(F)F)C(F)(F)F |  |  |  |  |  | 29.2 |  |  |  | 45.4 |  | 35.3 |  | 35.3 |  | 31.8 |  | 32.2 |  | 
COC(=O)C1CCC(Nc2ccc(C)cc2C)=N1 (centres undefined) |  | > 100 |  |  |  | > 100 |  | > 100 |  | > 100 |  | > 100 |  | > 100 |  | > 100 |  | > 100 |  | 
C/C(=N\NC(N)=S)c1cc(C)c(C)cc1C |  | > 100 |  |  |  | > 100 |  | > 100 |  | > 100 |  | > 100 |  | > 100 |  | > 100 |  | > 100 |  | 
O=C(C=Nc1ccccc1C(=O)[O-])c1cccs1.O=C(C=Nc1ccccc1C(=O)[O-])c1cccs1.[Co+2] |  | > 100 |  |  |  | > 100 |  | > 100 |  | > 100 |  | > 100 |  | > 100 |  | > 100 |  | > 100 |  | 
CC1(Cl)CC2OC3(Br)C=CC(C)(O)C2(CC1Br)C3(C)C (centres undefined) |  | > 100 |  |  |  | > 100 |  | > 100 |  | > 100 |  | > 100 |  | > 100 |  | > 100 |  | > 100 |  | 
C/C=C/C1=C(Cl)C(=O)[C@@H](Cl)[C@@]1(O)C(=O)OC |  | > 24 |  |  |  | 6.59 |  | 14.4 |  | 6.45 |  | 14.1 |  | 10.1 |  | 18 |  | 7.15 |  | 
CC1OC(n2ccc(=O)[nH]c2=O)C=C(OC(=O)c2ccccc2)C1=O (centres undefined) |  | > 100 |  |  |  | > 100 |  | > 100 |  | > 100 |  | > 100 |  | > 100 |  | > 100 |  | > 100 |  | 
CCC1C(=O)OCc2c1cc1n(c2=O)Cc2cc3ccccc3nc2-1 (centres undefined) |  |  |  | > 100 |  | > 100 |  | > 100 |  | > 70.9 |  | > 100 |  | 10.6 |  | 27.3 |  | > 100 | > 100 | 
O=C(CCC(=O)Nc1cccc(Cl)c1)CC(=O)c1ccc(F)cc1 |  |  |  |  |  | > 100 |  | > 100 |  | > 100 |  |  |  | > 100 |  | > 100 |  | > 100 |  | 
Nc1ncnc2c1ncn2Cc1ccc(C23CC4CC(CC(C4)C2)C3)c(OCc2cc(F)c(F)cc2F)c1 | 2.4 µM | 6.84 | 5.22 | > 100 | 5.74 | > 100 |  |  | 9.66 µM | > 100 | 7.54 µM | > 100 |  |  | 17.5 µM | > 100 | 11.7 µM | 67.5 | > 100 | 6.39
[Cl][Sn]([Cl])([c]1ccccc1)[c]1ccccc1 | 1.74 µM | 5.76 |  |  | 14.4 | 27.5 | 2.69 µM | 12.3 | 14.4 µM | 27.8 | 19.3 µM | 38.3 | 10.4 | 24 | 4.8 µM | 16.7 | 14.9 µM | 28.2 |  | 
O=C1c2cccnc2C(=O)C2C3C=CC(C3)C12 (centres undefined) |  |  |  | 5.7 |  | 20.4 |  | 34.9 |  | 30 |  | 24 |  | 58 |  | 24.2 |  | 29.2 | 9.97 | 
O=S(=O)(N/N=C/c1ccc(Cl)c(Cl)c1)c1ccccc1 |  | > 100 |  |  |  | > 100 |  | > 100 |  | > 100 |  | > 100 |  | > 100 |  | > 100 |  | > 100 |  | 
CCOC(=O)c1c(-c2ccccc2)oc(-c2ccccc2)c1C(=O)OCC |  | > 100 |  |  |  | > 100 |  | > 100 |  | > 100 |  | > 100 |  | > 100 |  | > 100 |  | > 100 |  | 
Cn1c2c(c3ccccc31)CCN(CCN1CCN(c3ccccc3)CC1)C2=O |  | > 100 |  |  |  | > 100 |  | > 100 |  | > 100 |  | > 100 |  | > 100 |  | > 100 |  | > 100 |  | 
CC(=O)O[C@@]12CO[C@@H]1C[C@H](O)[C@@]1(C)C(=O)[C@H](O)C3=C(C)[C@@H](OC(=O)[C@H](O)[C@@H](NC(=O)OC(C)(C)C)c4ccccc4)C[C@@](O)([C@@H](OC(=O)c4ccccc4)[C@H]21)C3(C)C | 0.0286 µM and 0.0159 µM | > 73.6 |  |  | 0.156 | 67.1 | 0.0147 µM and 0.0122 µM | 71.9 | 0.0139 µM and 0.0138 µM | > 79.3 | 0.0593 µM and 0.0198 µM | > 79 | 0.0192 | > 67.2 | 0.0612 µM and 0.00824 µM | > 100 | 0.0224 µM and 0.00869 µM | > 68.3 |  | 
O=c1c2ccccc2c(Br)c(Br)c2ccccc12 |  |  | 4.56 | 21 | 7.46 | 21.9 |  |  | 13.9 µM | 34.2 | 2.37 µM | 5.37 | 12.7 | 38.7 | 14.7 µM | 29.8 | 15.8 µM | 32.8 | 50.7 | 19.9
Nc1nc(N)c(Cn2ccnc2)c(=O)[nH]1 |  |  |  | > 100 |  | > 100 |  | > 100 |  | > 100 |  | > 100 |  | > 100 |  | > 100 |  | > 100 | > 100 | 
